Reference: patent US9107852B2, “Uses of agonists of delta opioid receptor in cosmetic and dermocosmetic field” (Induchem Holding AG, priority 2012, dated 2015)
Ends that are not written are not given here.

Tests used:
[1] = test system: reconstructed human epidermis (RHE); assay: Protein expression (in situ immunolabeling) in RHE stimulated with cytokines; assay type: cell-based; settings: 3 PPM peptide, % of level in non treated RHE
Procedure: In the present study, the effects of a peptide on the expression of 7 proteins were assessed on a reconstructed human epidermis (RHE) model stimulated or not with a mix of cytokines (IL-17+OSM+TNF-α).
More precisely, effects of compounds were evaluated on the protein expression of markers involved in: • tight junctions (Occludin), • […] (Corneosdesmosin) • keratinocyte differentiation (keratin 10, involucrin, calmodulin-like5), • and lipid synthesis (Acyl-CoA synthetase and sulfotransferase 2B).
Reconstructed human epidermis (RHE) of 11 days old were prepared according to a derived method described by Poumay et al. (2004). These RHE were cultivated at 37° C. and 5% of CO2 in a specific maintenance medium.
The RHE were treated with assay medium containing or not (control) the test compounds or the JAK inhibitor I at 10 μM and incubated for 24 hours. After pre-incubation, assay medium and treatments were renewed and epidermises were stimulated with a cytokine mix (OSM+IL-17+TNF-α*) at 3 ng/ml and incubated for additional 48 hours. All experimental conditions were performed in n=3. *Oncostatin M (OSM)+Interleukin 17 (IL-17)+ Tumor necrosis factor alpha (TNF-α)
At the end of incubation, the supernatants were collected and the RHE were washed in phosphate buffered saline solution (PBS) for in situ immunolabeling.
After incubation, the RHE were snap-frozen in liquid isopentane/N2 and stored at −80° C. The transversal sections were carried out using a microtome (5 μm thickness, one slide per RHE, several sections per slide).
The sections were fixed with an acetone/methanol mix and dried. After PBS-milk 5% saturation, the sections were incubated with the specific primary antibody solutions. […] The sections were washed and then observed under epifluorescence microscopy.
After incubation, RHE were rinsed and fixed with formaldehyde solution. Fixed tissues were dehydrated in multiple baths with increasing concentration of ethanol and then embedded in paraffin. The transversal sections were carried out using a microtome (5 μm thickness) and stored at room temperature.
The sections were deparaffinized then the antigenic sites were retrieved. The sections were washed and incubated with hydrogen peroxide. The sections, once washed, were incubated with the primary antibody (anti-Calmodulin-like 5 or anti-SULT2B1). […] After peroxidase-conjugated streptavidine and peroxidase substrate addition, nuclei were counter-stained with a solution of haematoxylin. The sections were washed, mounted in aqueous medium and observed under transmitted-light microscopy.
Sections were observed using a NIKON E400 microscope. Images were captured with a NIKON DS-Ri1 and processed with NIS-Elements 3.10 software (3 pictures per replicate). The image analysis was performed by measuring the fluorescence intensity using Image J software.
Results were expressed in % of the level of expression of each protein maker in non treated RHE.

delta2 opioid receptor = biological target: T1, delta2 opioid receptor (Mus musculus, UniProt P32300); assay: Agonist effect at the delta2 opioid receptor (DOP), cell impedance; assay type: cell-based
T1 construct: host or cells: unnamed cells 'bearing the delta2 opioid receptor'
T1 sequence (P32300 whole entry): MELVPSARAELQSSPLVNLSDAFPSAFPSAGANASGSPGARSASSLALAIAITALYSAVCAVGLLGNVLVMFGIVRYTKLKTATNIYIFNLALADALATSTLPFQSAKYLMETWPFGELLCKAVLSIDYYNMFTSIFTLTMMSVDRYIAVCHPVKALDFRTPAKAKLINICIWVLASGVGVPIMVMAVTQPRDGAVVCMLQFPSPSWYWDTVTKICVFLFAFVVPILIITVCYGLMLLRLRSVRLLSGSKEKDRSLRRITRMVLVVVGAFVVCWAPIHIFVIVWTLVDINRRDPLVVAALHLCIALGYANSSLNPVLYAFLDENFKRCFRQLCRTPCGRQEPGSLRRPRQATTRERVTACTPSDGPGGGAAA
Procedure: Frozen spinach leaves were thawed and disrupted in fine particles a blender. This juice was further treated with ultrasounds to disrupt cells and proteins were recovered by acidic precipitation. These proteins were then digested by several enzymes, including pepsin and papain. The hydrolysate was purified (ultrafiltration), fractionated and stored before testing. Meanwhile, synthetic peptides were ordered from a manufacturer. The peptides and the hydrolysates were tested on cells bearing the delta2 opioid receptor and cell impedance was measured to evaluate the binding activity of the tested compounds (Law and Loh, 1993).
The EC50 values (concentration producing a half-maximal specific response) and IC50 values (concentration causing a half-maximal inhibition of the control specific agonist response) were determined by non-linear regression analysis of the concentration-response curves generated with mean replicate values using Hill equation curve fitting (Y=D+[(A D)/(1+(C/C50)nH)], where Y=specific response, D=minimum specific response, A=maximum specific response, C=compound concentration, and C50=EC50 or IC50, and nH=slope factor).

[2] = percent of control specific agonist response (DPDPE)

Q: Which results are given for YPLDLF [YPLDLF]?
A: Acyl-CoA synthetase protein expression level in RHE [1]: 65%; Calmodulin like 5 protein expression level in RHE [1]: 100%; Corneodesmosin protein expression level in RHE [1]: 84%; Involucrin protein expression level in RHE [1]: 99%; Keratin 10 protein expression level in RHE [1]: 104%; Occludin protein expression level in RHE [1]: 97%; Sulfotransferase 2B protein expression level in RHE [1]: 100%; EC50 (delta2 opioid receptor): 3.9 µM; A (Hill curve fit parameter) (delta2 opioid receptor; [2]): −8.3; D (Hill curve fit parameter) (delta2 opioid receptor; [2]): 100.0
